Consider twelve compounds from patent US7186743B2, “Substituted pyrazolyl compounds for the treatment of inflammation” (Pharmacia Corporation, priority 2001, dated 2007).

The first assay addresses T1, IKK2 (Homo sapiens, UniProt O14920).
T1 construct: made in house; host or cells: insect cells (baculovirus, pFastBac; SF9)
T1 sequence (O14920 1-756): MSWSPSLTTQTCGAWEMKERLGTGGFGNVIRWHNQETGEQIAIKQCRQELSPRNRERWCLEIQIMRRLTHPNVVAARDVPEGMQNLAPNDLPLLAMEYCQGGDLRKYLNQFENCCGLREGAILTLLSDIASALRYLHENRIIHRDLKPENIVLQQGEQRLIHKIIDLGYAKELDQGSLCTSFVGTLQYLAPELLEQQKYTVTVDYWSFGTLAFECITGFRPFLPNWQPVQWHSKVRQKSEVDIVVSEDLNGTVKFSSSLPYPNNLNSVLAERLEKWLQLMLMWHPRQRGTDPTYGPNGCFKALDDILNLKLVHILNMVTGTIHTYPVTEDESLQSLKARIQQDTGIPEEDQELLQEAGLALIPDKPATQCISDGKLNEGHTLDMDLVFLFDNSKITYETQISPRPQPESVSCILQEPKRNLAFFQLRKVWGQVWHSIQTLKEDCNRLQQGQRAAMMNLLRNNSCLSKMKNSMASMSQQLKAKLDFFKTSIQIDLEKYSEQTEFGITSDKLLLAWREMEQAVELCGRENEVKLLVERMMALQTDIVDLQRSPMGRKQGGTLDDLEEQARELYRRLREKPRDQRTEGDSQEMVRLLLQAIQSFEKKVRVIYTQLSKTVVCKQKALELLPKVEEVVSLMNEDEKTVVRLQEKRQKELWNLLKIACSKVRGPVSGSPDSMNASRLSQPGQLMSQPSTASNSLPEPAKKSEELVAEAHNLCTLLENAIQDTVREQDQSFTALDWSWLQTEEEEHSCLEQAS
Nature of the assay: IKKβ Resin Enzyme Assay (IKK2 resin). It counts as biochemical. Particulars: Table 11; read-out: IKK2 Resin IC50. The method in brief:
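Radiometric test: [γ-33P]ATP incorporation into a biotinylated IκBα peptide, 30 min at 25° C, pH 7.6 Hepes with MgCl2/MnCl2 and 1 μM cold ATP. Reaction is quenched with Dowex resin and the supernatant is counted. Kinase is FLAG-purified homodimeric recombinant human IKK2 from insect cells.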
What is called IC50 is the point on the concentration scale where inhibition reaches its midpoint. With `CC(C)(O)/C=C/c1ccc(-n2nc(C(N)=O)c3c2-c2cc(NC(=O)c4ccccc4Cl)ccc2CC3)cc1` [Example 289, 8-[(2-chlorobenzoyl)amino]-1-{4-[(1E)-3-hydroxy-3-methylbut-1-enyl]phenyl}-4,5-dihydro-1H-benzo[g]indazole-3-carboxamide], the IC50 was at most 1000 nM.
Still for that read-out and setting: the value for `NC(=O)c1nn(-c2ccc(/C=C/C(=O)O)cc2)c2c1CCc1ccc(NC(=O)c3ccccc3Cl)cc1-2` [Example 291, (2E)-3-(4-{3-(aminocarbonyl)-8-[(2-chlorobenzoyl)amino]-4,5-dihydro-1H-benzo[g]indazol-1-yl}phenyl)prop-2-enoic acid] was at most 1000 nM.
Still for that read-out and setting: in the case of `NC(=O)/C=C/c1ccc(-n2nc(C(N)=O)c3c2-c2cc(NC(=O)c4ccccc4Cl)ccc2CC3)cc1` [Example 292, 1-{4-[(1E)-3-amino-3-oxoprop-1-enyl]phenyl}-8-[(2-chlorobenzoyl)amino]-4,5-dihydro-1H-benzo[g]indazole-3-carboxamide] it was at most 1000 nM.
Same read-out and setting: in the case of `NC(=O)c1nn(-c2ccc(/C=C/n3ccnc3)cc2)c2c1CCc1ccc(NC(=O)c3ccccc3Cl)cc1-2` [Example 293, 8-[(2-chlorobenzoyl)amino]-1-{4-[(E)-2-(1H-imidazol-1-yl)ethenyl]phenyl}-4,5-dihydro-1H-benzo[g]indazole-3-carboxamide] it was at most 1000 nM; in that of `CC(=O)CCc1ccc(-n2nc(C(N)=O)c3c2-c2cc(NC(=O)c4ccccc4Cl)ccc2CC3)cc1` [Example 296, 8-[(2-chlorobenzoyl)amino]-1-[4-(3-oxobutyl)phenyl]-4,5-dihydro-1H-benzo[g]indazole-3-carboxamide], at most 1000 nM; in that of `CS(=O)(=O)/C=C/c1ccc(-n2nc(C(N)=O)c3c2-c2cc(NC(=O)c4ccccc4Cl)ccc2CC3)cc1` [Example 297, 8-[(2-chlorobenzoyl)amino]-1-{4-[(E)-2-(methylsulfonyl)ethenyl]phenyl}-4,5-dihydro-1H-benzo[g]indazole-3-carboxamide], at most 1000 nM.
Consider `NC(=O)c1nn(-c2ccc(/C=C/CCO)cc2)c2c1CCc1ccc(NC(=O)c3ccccc3Cl)cc1-2` [Example 298, 8-[(2-chlorobenzoyl)amino]-1-{4-[(1E)-4-hydroxybut-1-enyl]phenyl}-4,5-dihydro-1H-benzo[g]indazole-3-carboxamide], for which the concentration for half-maximal inhibition (IC50) was at most 1000 nM.
Consider `NC(=O)c1nn(-c2ccc(CCC(=O)CO)cc2)c2c1CCc1ccc(NC(=O)c3ccccc3Cl)cc1-2` [Example 299, 8-[(2-chlorobenzoyl)amino]-1-[4-(4-hydroxy-3-oxobutyl)phenyl]-4,5-dihydro-1H-benzo[g]indazole-3-carboxamide], for which the IC50 was at most 1000 nM.
On the same count and under the same terms, in the case of `NC(=O)c1nn(-c2ccc(/C=C\CO)cc2)c2c1CCc1ccc(NC(=O)c3cccnc3Cl)cc1-2` [Example 300, 8-{[(2-chloropyridin-3-yl)carbonyl]amino}-1-{4-[(1Z)-3-hydroxyprop-1-enyl]phenyl}-4,5-dihydro-1H-benzo[g]indazole-3-carboxamide] it was at most 1000 nM; in that of `CNC(=O)/C=C/c1ccc(-n2nc(C(N)=O)c3c2-c2cc(NC(=O)c4cccnc4Cl)ccc2CC3)cc1` [Example 301, 8-{[(2-chloropyridin-3-yl)carbonyl]amino}-1-{4-[(1E)-3-(methylamino)-3-oxoprop-1-enyl]phenyl}-4,5-dihydro-1H-benzo[g]indazole-3-carboxamide], at most 1000 nM; in that of `CC(=O)CCc1ccc(-n2nc(C(N)=O)c3c2-c2cc(NC(=O)c4cccnc4Cl)ccc2CC3)cc1` [Example 302, 8-{[(2-chloropyridin-3-yl)carbonyl]amino}-1-[4-(3-oxobutyl)phenyl]-4,5-dihydro-1H-benzo[g]indazole-3-carboxamide], at most 1000 nM.

Still in this assay, the particulars now being: Table 12; read-out: IKK2 Resin IC50.
Regarding `COCCNC(=O)/C=C/c1ccc(-n2nc(C(N)=O)c3c2-c2cc(NC(=O)c4ccccc4Cl)ccc2CC3)cc1` [Example 309, 8-[(2-chlorobenzoyl)amino]-1-(4-{(1E)-3-[(2-methoxyethyl)amino]-3-oxoprop-1-enyl}phenyl)-4,5-dihydro-1H-benzo[g]indazole-3-carboxamide], the concentration for half-maximal inhibition (IC50) is at most 1000 nM.
